The text below walks through data of ChEMBL document CHEMBL3351412, “Design, synthesis and biological evaluation of β-boswellic acid based HDAC inhibitors as inducers of cancer cell death” (Bioorg Med Chem Lett, 2014).

As usually defined, the inhibition is how much of the control response was suppressed. Lower therefore signals a response near the control. In general, IC50 refers to the concentration that inhibits the measured activity by half. High values mean lower potency, low ones higher potency.

Activity calls are given as the source filed them. The rule behind the calls is not given here.

Test [1] concerns the target T1, Histone deacetylase (Homo sapiens) (UniProt Q13547+O15379+Q9UBN7+Q92769+Q9UQL6+Q8WUI4+Q9BY41+Q96DB2+P56524+Q9UKV0+Q969S8). As to the kind of experiment: Inhibition of HDAC (unknown origin) at 50 uM. The test is classed as protein assay.
The target of test [2] is T1, Histone deacetylase (Homo sapiens). The experiment in a line: Inhibition of HDAC (unknown origin) at 30 uM. It counts as protein assay.
Another test relates to MCF7. As to the kind of experiment: Cytotoxicity against human MCF7 cells. The test is classed as functional, cell-based.
In another test the test system is A549. As to the kind of experiment: Cytotoxicity against human A549 cells. The test is classed as functional, cell-based.
The nature of test [3]: Cytotoxicity against human MIAPaCa2 cells. It counts as functional, cell-based. The following applies: MIA PaCa-2.
Test [4] is described as follows: Cytotoxicity against human HL60 cells. It counts as functional, cell-based. The following applies: HL-60.
Test [5] can be described thus: Cytotoxicity against human HCT116 cells. It counts as functional, cell-based. The following applies: HCT-116.
Another test deals with Histone deacetylase. The experiment in a line: Inhibition of HDAC (unknown origin). The test is classed as protein assay, Homo sapiens.
Test [6] can be described thus: Cytotoxicity against human FR2 cells. It counts as cell-based.
Test [7] can be described thus: Cell cycle arrest in human HL60 cells assessed as accumulation at sub-G1 phase at 1 uM by propidium iodide staining-based flow cytometry (reference value: 2.1%). The test is classed as functional. The following applies: HL-60. (A flow cytometer gives signals particle by particle.)
The nature of test [8]: Cell cycle arrest in human HL60 cells assessed as accumulation at S phase at 5 uM by propidium iodide staining-based flow cytometry (reference value: 17.3%). The test is classed as functional. The following applies: HL-60.
Test [9] can be described thus: Cell cycle arrest in human HL60 cells assessed as accumulation at G2/M phase at 5 uM by propidium iodide staining-based flow cytometry (reference value: 21.3%). The following applies: HL-60. It counts as functional.
The nature of test [10]: Cell cycle arrest in human HL60 cells assessed as accumulation at S phase at 1 uM by propidium iodide staining-based flow cytometry (reference value: 17.3%). The following applies: HL-60. It counts as functional.
A short description of test [11]: Cell cycle arrest in human HL60 cells assessed as accumulation at sub-G1 phase at 5 uM by propidium iodide staining-based flow cytometry (reference value: 2.1%). The test is classed as functional. The following applies: HL-60.
The target in test [12] is T1, Histone deacetylase (Homo sapiens). The experiment in a line: Inhibition of HDAC (unknown origin) at 10 uM. It counts as protein assay.
Test [13] shares this target. As to the kind of experiment: Inhibition of HDAC (unknown origin) at 20 uM. The test is classed as protein assay.
The nature of test [14]: Cell cycle arrest in human HL60 cells assessed as accumulation at G1 phase at 1 uM by propidium iodide staining-based flow cytometry (reference value: 58.9%). The test is classed as functional. The following applies: HL-60.
Test [15] relates to HL-60. The experiment in a line: Induction of apoptosis in human HL60 cells assessed as loss of mitochondrial membrane potential in P4 quadrant at 1 uM by Rhodamine123 assay (reference value: 96.6%). The test is classed as functional.
Test [16] can be described thus: Cell cycle arrest in human HL60 cells at 5 to 10 uM by propidium iodide staining-based flow cytometry. The test is classed as functional. The following applies: HL-60.
Test [17] has as its system HL-60. As to the kind of experiment: Induction of apoptosis in human HL60 cells assessed as loss of mitochondrial membrane potential in P5 quadrant at 5 uM by Rhodamine123 assay (reference value: 3.4%). The test is classed as functional.
Test [18] has as its system HL-60. The experiment in a line: Induction of apoptosis in human HL60 cells assessed as loss of mitochondrial membrane potential in P4 quadrant at 5 uM by Rhodamine123 assay (reference value: 96.6%). The test is classed as functional.
Test [19] deals with HL-60. As to the kind of experiment: Induction of apoptosis in human HL60 cells assessed as loss of mitochondrial membrane potential in P5 quadrant at 1 uM by Rhodamine123 assay (reference value: 3.4%). It counts as functional.
Test [20] in a line: Cell cycle arrest in human HL60 cells assessed as accumulation at G1 phase at 5 uM by propidium iodide staining-based flow cytometry (reference value: 58.9%). The following applies: HL-60. It counts as functional.
Test [21] in a line: Cell cycle arrest in human HL60 cells assessed as accumulation at G2/M phase at 1 uM by propidium iodide staining-based flow cytometry (reference value: 21.3%). The test is classed as functional. The following applies: HL-60.
For test [22], the target named is T1, Histone deacetylase (Homo sapiens). The experiment in a line: Inhibition of HDAC (unknown origin) at 1 uM. It counts as protein assay.

For the compound `C[C@H]1[C@H](C)CC[C@]2(C)CC[C@]3(C)C(=CC(=O)[C@@H]4[C@@]5(C)CC[C@@H](O)[C@](C)(NC(=O)CCCCCCCC(=O)NO)[C@@H]5CC[C@]43C)[C@H]12`, the inhibition in [1] worked out at 52%; in test [2] it was 31%. Besides, the IC50 in the test on MCF7 is 11 µM; with A549 it was greater than 20 µM; in [3], greater than 20 µM; in [4] it was greater than 20 µM; in [5] it was 12 µM; on Histone deacetylase, 48 µM. Moreover, in test [6], the IC50 was greater than 20 µM.

As for `C[C@H]1[C@H](C)CC[C@]2(C)CC[C@]3(C)C(=CC(=O)[C@@H]4[C@@]5(C)CC[C@@H](O)[C@](C)(NC(=O)CCCCCCC(=O)NO)[C@@H]5CC[C@]43C)[C@H]12`, the inhibition in [1] is 39%; in test [2] it was 12%. The IC50 in the test with MCF7 is 4 µM; in the test with A549, 6.9 µM; in [3] it was 8.7 µM; in test [4] it was 3 µM; in test [5] it was 5.2 µM; against Histone deacetylase it was greater than 50 µM. This compound gave a 50% inhibitory concentration (IC50) in test [6] of 4.3 µM.

For `C[C@H]1[C@H](C)CC[C@]2(C)CC[C@]3(C)C(=CC(=O)[C@@H]4[C@@]5(C)CC[C@@H](O)[C@](C)(NC(=O)CCCC(=O)NO)[C@@H]5CC[C@]43C)[C@H]12`, the inhibition in test [1] worked out at 88%; in test [12], 65%; in test [13], 70%; in test [2], 86%; in test [22], 23%. Also, the Activity in test [7] was 6.1%; in [8], 0.7%; in [9], 7.1%; in [10], 8%; in [11] it was 92.2%; in test [14], 74.5%. Further, the Activity was 93.3% with HL-60 [15]; 96.4% with HL-60 [17]; 3.6% with HL-60 [18]; 6.7% in the test with HL-60 [19]; 7.2% in test [20]; 10.7% in test [21]. Moreover, the IC50 was found to be 7.1 µM in the test on MCF7; 13 µM with A549; 15.1 µM in test [3]; 1.6 µM in [4]; 15.1 µM in test [5]; 6 µM against Histone deacetylase. This compound also displayed an IC50 in test [6] of 1.9 µM. Further, the result in [16] was Active.

Regarding `C[C@H]1[C@H](C)CC[C@]2(C)CC[C@]3(C)C(=CC[C@@H]4[C@@]5(C)CC[C@@H](O)[C@](C)(NC(=O)CCCC(=O)NO)[C@@H]5CC[C@]43C)[C@H]12`, the values for the inhibition in test [1] and in [2] were 54% and 46%, respectively. Also, the IC50 was 3.6 µM with MCF7; greater than 20 µM in the test with A549; 8.8 µM in [3]; 11.7 µM in test [4]; greater than 20 µM in [5]; 34 µM against Histone deacetylase. This compound registered an IC50 in [6] greater than 20 µM.

As for `C[C@H]1[C@H](C)CC[C@]2(C)CC[C@]3(C)C(=CC(=O)[C@@H]4[C@@]5(C)CC[C@@H](O)[C@](C)(NC(=O)CCCCC(=O)NO)[C@@H]5CC[C@]43C)[C@H]12`, the inhibition in test [1] is 57%; in [2], 37%. For the same compound, the 50% inhibitory concentration (IC50) in the test with MCF7 is greater than 20 µM; with A549, 3.1 µM; in test [3], 13.1 µM; in test [4] it was 6.6 µM; in test [5], greater than 20 µM; against Histone deacetylase, 42 µM. Also, it took 7.2 µM to reach half-maximal inhibition in [6] (IC50).

In the case of `C[C@H]1[C@H](C)CC[C@]2(C)CC[C@]3(C)C(=CC[C@@H]4[C@@]5(C)CC[C@@H](O)[C@](C)(NC(=O)CCCCCCC(=O)NO)[C@@H]5CC[C@]43C)[C@H]12`, the results for the inhibition in test [1] and in [2] were 56% and 50%, respectively. The Activity in [7] is 7.4%; in test [8], 15.7%; in [9], 18.6%; in [10], 16.8%; in [11] it was 4.5%; in test [14], 57.8%. For the same compound, the Activity with HL-60 [15] worked out at 96.8%; with HL-60 [17] it was 29.8%; in the test with HL-60 [18], 70.2%; in the test with HL-60 [19], 3.2%; in test [20], 60.6%; in test [21], 16.8%. For the same compound, the concentration for half-maximal inhibition (IC50) in the test with MCF7 was greater than 20 µM; with A549, greater than 20 µM; in test [3], greater than 20 µM; in test [4] it was greater than 20 µM; in test [5] it was greater than 20 µM; on Histone deacetylase it was 30 µM. The IC50 in [6] is greater than 20 µM.

As to `O=C(CCCCCCC(=O)Nc1ccccc1)NO` [VORINOSTAT], the Activity was found to be 2.8% in test [7]; 14% in [10]; 65.3% in [14]; 96% with HL-60 [15]; 4% in the test on HL-60 [19]; 17.1% in test [21].

As for `C[C@H]1[C@H](C)CC[C@]2(C)CC[C@]3(C)C(=CC[C@@H]4[C@@]5(C)CC[C@@H](O)[C@](C)(NC(=O)CCCCCCCC(=O)NO)[C@@H]5CC[C@]43C)[C@H]12`, the inhibition in [1] came to 45%; in test [2] it was 34%. Also, the IC50 in the test on MCF7 is 6.4 µM; in the test with A549 it was 15 µM; in test [3], 11.9 µM; in test [4], 12.4 µM; in test [5] it was 11.8 µM; on Histone deacetylase it was greater than 50 µM. In test [6], this compound yielded an IC50 greater than 20 µM.

As for `C[C@H]1[C@H](C)CC[C@]2(C)CC[C@]3(C)C(=CC[C@@H]4[C@@]5(C)CC[C@@H](O)[C@](C)(NC(=O)CCCCC(=O)O)[C@@H]5CC[C@]43C)[C@H]12`, the IC50 (in the test with MCF7; in the test with A549; in test [3]; in test [4]; in test [5]; in test [6]) was greater than 20 µM each time.

Take `COC(=O)CCCCCCCC(=O)N[C@]1(C)[C@@H]2CC[C@]3(C)[C@H](C(=O)C=C4[C@@H]5[C@@H](C)[C@H](C)CC[C@]5(C)CC[C@]43C)[C@@]2(C)CC[C@H]1OC(C)=O`: the IC50 came to 2 µM in the test on MCF7; 10 µM in the test with A549; 6.1 µM in [3]; 10 µM in test [4]; 18 µM in [5]; 17.2 µM in test [6].
